Results as given in ChEMBL document CHEMBL5131409, “Synthesis and characterization of chiral 6-azaspiro[2.5]octanes as potent and selective antagonists of the M4 muscarinic acetylcholine receptor” (Bioorg Med Chem Lett, 2022).

Experiments:
[1] = Intrinsic clearance in rat liver microsomes; format: ADME, Microsome; settings: read-out: CLH
[2] = AUC (0.25 to last) in mouse plasma at 3 mg/kg, ip; format: ADME, organism-based; parameters: dose 3 mg/kg, route ip
[3] = Tmax in mouse brain at 3 mg/kg, ip; format: ADME, organism-based
[4] = molecular target: Cytochrome P450 2D6 (Homo sapiens, UniProt P10635); assay: Inhibition of CYP2D6 in human liver microsomes using cocktail of isoform-specific probe substrate; format: ADME, Microsome
[5] = molecular target: T1, Muscarinic acetylcholine receptor M2 (Homo sapiens, UniProt P08172); assay: Inhibition of human muscarinic acetylcholine M2 receptor expressed in CHO cells co-expressing Gqi5 preincubated with compound followed by acetylcholine addition at EC80 concentration by calcium mobilization assay; format: functional, cell-based
T1 sequence (P08172 whole entry): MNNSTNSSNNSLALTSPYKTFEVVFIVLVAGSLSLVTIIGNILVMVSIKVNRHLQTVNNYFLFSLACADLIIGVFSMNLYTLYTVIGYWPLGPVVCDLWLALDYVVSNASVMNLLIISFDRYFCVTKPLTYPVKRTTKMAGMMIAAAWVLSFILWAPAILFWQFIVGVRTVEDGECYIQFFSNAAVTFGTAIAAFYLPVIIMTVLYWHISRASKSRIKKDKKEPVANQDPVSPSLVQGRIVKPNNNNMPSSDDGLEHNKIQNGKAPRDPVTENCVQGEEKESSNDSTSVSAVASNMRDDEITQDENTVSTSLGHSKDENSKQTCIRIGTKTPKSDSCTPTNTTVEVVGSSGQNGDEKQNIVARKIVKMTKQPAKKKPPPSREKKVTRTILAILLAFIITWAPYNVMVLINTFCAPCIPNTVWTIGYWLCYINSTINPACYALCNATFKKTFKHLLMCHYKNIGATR

[6] = Tmax in rat brain at 3 mg/kg, ip; format: ADME, organism-based
[7] = AUC (0 to last) in rat at 3 mg/kg, iv; format: ADME, organism-based; parameters: time 0 - last, dose 3 mg/kg, route iv; settings: in vivo
[8] = Selectivity ratio of IC50 for inhibition of human muscarinic acetylcholine M2 receptor to IC50 for inhibition of human muscarinic acetylcholine M4 receptor expressed in CHO cells co-expressing Gqi5 in the presence of acetylcholine at EC80 concentration by calcium mobilization assay; format: cell-based
[9] = molecular target: Cytochrome P450 2C9 (Homo sapiens, UniProt P11712); assay: Inhibition of CYP2C9 in human liver microsomes using cocktail of isoform-specific probe substrate; format: ADME, Microsome
[10] = Intrinsic clearance in human liver microsomes; format: ADME, Microsome; settings: read-out: CLH
[11] = Elimination half life in rat at 3 mg/kg, iv; format: ADME, organism-based; settings: in vivo, read-out: beta t1/2 (converted)
[12] = Unbound Cmax in rat plasma at 3 mg/kg, ip; format: ADME, organism-based; settings: in vivo
[13] = Ratio of AUC (0.25 to last) in mouse brain to plasma at 3 mg/kg, ip; format: ADME, organism-based; settings: read-out: Ratio AUC
[14] = AUC (0 to infinity) in rat at 3 mg/kg, iv; format: ADME, organism-based; parameters: time infinity, dose 3 mg/kg, route iv; settings: in vivo
[15] = AUC (0.25 to last) in rat plasma at 3 mg/kg, ip; format: ADME, organism-based; parameters: dose 3 mg/kg, route ip
[16] = Cmax in rat brain at 3 mg/kg, ip; format: ADME, organism-based; parameters: dose 3 mg/kg, route ip
[17] = molecular target: Muscarinic acetylcholine receptor M3 (Rattus norvegicus, UniProt P08483); assay: Inhibition of rat muscarinic acetylcholine M3 receptor expressed in CHO cells co-expressing Gqi5 preincubated with compound followed by acetylcholine addition at EC80 concentration by calcium mobilization assay; format: functional, cell-based
[18] = Cmax in rat plasma at 3 mg/kg, ip; format: ADME, organism-based; parameters: dose 3 mg/kg, route ip
[19] = molecular target: T2, Muscarinic acetylcholine receptor M4 (Homo sapiens, UniProt P08173); assay: Displacement of [3H]-NMS from human muscarinic acetylcholine M4 receptor expressed in CHO cell membrane by competitive binding assay; format: cell membranes
T2 sequence (P08173 whole entry): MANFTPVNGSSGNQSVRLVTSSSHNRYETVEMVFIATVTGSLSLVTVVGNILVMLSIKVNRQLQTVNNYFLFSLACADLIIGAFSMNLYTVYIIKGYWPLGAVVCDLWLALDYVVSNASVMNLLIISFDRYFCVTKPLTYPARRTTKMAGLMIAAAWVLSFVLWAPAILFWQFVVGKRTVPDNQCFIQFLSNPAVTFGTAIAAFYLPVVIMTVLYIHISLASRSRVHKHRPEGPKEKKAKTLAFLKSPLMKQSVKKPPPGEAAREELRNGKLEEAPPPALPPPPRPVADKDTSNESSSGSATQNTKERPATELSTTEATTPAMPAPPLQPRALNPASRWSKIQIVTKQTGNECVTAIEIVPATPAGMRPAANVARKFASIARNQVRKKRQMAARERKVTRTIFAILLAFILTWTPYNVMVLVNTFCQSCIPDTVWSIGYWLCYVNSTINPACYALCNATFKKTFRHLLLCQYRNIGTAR

[20] = Tmax in mouse plasma at 3 mg/kg, ip; format: ADME, organism-based
[21] = MRT in rat at 3 mg/kg, iv; format: ADME, organism-based; settings: in vivo
[22] = molecular target: T3, Muscarinic acetylcholine receptor M1 (Rattus norvegicus, UniProt P08482); assay: Inhibition of rat muscarinic acetylcholine M1 receptor expressed in CHO cells co-expressing Gqi5 preincubated with compound followed by acetylcholine addition at EC80 concentration by calcium mobilization assay; format: functional, cell-based
T3 sequence (P08482 whole entry): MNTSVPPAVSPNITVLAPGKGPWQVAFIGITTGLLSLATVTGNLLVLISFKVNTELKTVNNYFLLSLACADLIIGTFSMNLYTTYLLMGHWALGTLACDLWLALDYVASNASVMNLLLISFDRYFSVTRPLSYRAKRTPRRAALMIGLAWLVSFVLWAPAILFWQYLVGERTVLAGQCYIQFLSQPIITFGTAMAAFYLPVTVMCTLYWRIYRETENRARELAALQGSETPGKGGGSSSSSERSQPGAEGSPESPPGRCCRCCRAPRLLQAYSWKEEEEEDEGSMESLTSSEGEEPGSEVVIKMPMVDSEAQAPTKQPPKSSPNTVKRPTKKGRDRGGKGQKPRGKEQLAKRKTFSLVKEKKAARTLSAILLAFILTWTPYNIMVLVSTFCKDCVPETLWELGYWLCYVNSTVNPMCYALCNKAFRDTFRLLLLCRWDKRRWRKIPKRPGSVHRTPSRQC

[23] = AUC (0.25 to last) in mouse brain at 3 mg/kg, ip; format: ADME, organism-based; settings: in vivo

Chain of Cytochrome P450 2D6 (P10635 whole entry, canonical isoform): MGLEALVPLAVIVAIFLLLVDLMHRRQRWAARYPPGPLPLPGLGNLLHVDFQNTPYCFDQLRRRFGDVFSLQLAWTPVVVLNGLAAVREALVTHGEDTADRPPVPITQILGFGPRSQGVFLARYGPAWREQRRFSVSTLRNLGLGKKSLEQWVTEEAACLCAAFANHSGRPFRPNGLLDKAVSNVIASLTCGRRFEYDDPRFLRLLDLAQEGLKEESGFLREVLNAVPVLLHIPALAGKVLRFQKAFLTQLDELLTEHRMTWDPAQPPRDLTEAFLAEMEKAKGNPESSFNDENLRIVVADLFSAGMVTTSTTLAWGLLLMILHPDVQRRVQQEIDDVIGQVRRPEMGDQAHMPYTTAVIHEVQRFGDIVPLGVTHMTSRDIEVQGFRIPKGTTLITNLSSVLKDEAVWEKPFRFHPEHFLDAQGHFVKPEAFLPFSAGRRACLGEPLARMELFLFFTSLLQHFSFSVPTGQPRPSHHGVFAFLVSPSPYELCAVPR
Chain of Cytochrome P450 2C9 (P11712 whole entry, canonical isoform): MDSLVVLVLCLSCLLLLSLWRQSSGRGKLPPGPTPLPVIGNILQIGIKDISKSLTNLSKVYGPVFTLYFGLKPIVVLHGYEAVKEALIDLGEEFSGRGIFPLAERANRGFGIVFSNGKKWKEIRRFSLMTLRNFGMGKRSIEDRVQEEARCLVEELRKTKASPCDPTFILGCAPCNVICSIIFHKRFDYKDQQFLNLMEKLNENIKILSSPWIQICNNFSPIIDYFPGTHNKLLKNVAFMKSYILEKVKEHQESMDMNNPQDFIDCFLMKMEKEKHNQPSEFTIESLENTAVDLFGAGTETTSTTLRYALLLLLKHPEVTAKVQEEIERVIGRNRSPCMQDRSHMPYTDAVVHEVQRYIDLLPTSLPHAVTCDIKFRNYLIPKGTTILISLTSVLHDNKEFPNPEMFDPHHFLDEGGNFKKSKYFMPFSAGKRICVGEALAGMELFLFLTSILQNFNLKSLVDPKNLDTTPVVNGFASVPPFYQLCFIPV
Chain of Muscarinic acetylcholine receptor M3 (P08483 whole entry): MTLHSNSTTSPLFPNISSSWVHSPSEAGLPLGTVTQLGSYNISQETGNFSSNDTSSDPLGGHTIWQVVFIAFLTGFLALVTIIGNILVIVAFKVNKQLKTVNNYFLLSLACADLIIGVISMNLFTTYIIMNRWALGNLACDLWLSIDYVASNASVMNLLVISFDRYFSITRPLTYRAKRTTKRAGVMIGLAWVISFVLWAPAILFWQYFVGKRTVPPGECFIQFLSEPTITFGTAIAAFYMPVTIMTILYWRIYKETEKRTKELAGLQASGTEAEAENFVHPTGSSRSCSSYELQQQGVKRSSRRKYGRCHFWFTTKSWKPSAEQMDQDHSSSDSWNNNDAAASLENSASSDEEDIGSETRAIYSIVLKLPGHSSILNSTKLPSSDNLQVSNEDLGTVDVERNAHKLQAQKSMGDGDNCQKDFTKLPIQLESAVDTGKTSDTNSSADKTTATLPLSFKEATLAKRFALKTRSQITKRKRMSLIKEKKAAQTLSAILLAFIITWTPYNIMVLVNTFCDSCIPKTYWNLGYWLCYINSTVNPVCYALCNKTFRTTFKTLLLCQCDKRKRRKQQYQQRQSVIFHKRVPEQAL

- CLint scaled [1]: 0.372 L/h/kg
- AUC [2]: 10.5 µg·h/mL
- Tmax [3]: 2 h
- IC50 [4]: > 30 µM
- IC50 [5]: > 10 µM
- Tmax [6]: 2 h
- AUC(0-t) [7]: 0.181 µg·h/mL
- IC50 [9]: > 30 µM
- predicted hepatic clearance [10]: 0.96 L/h/kg
- half-life [11]: 8.6 h
- fCmax [12]: 1656 ng/mL
- Kp [13]: 0.38
- AUC(0-inf) [14]: 0.202 µg·h/mL
- AUC [15]: 9.55 µg·h/mL
- Cmax [16]: 477 ng/g
- IC50 [17]: > 10 µM
- Cmax [18]: 6.71 µg/mL
- Ki [19]: 0.0433 µM
- Tmax [20]: 0.5 h
- MRT [21]: 9.33 h
- IC50 [22]: > 10 µM
- AUClast [23]: 3980 ng·h/g
Compound: CC(=O)Nc1ccc(-c2ccc(NC[C@@H]3CC34CCN(CC3CCOCC3)CC4)nn2)cc1
- Ratio IC50 [8]: > 140
